Our source for the RP-LC retention time values is the METLIN SMRT retention time set (Domingo-Almenara et al. 2019).

SMILES strings stand for the structures.

This series in a line: gradient 5% acetonitrile 3 min, to 50% in 2 min, to 85% in 15 min, held 3 min, 100 µL/min. The conditions noted are these: column: Zorbax Extend-C18 2.1 x 50 mm; eluents: water / acetonitrile, 0.1% formic acid. An outline of the steps:
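Standards, all pure, were combined into mixtures of ~100 molecules and run at 100 μL/min on a Zorbax Extend-C18 column (2.1 × 50 mm, 1.8 μm) with water and acetonitrile, each containing 0.1% formic acid. A coupled quadrupole time-of-flight mass spectrometer operated in positive and negative ionization mode. Retention time values come from computationally picked adduct peaks, each inspected manually.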
For the compound `COc1ccc(NC(=O)C2CCCN(c3nc4c(s3)c(C)nn4-c3ccc(OC)cc3)C2)cc1` (stereo not given), the RP-LC retention time is 1080 s.
The figure for `CC1=C(c2ccc(C)cc2)S(=O)(=O)N=C1N1CCCN(C(=O)CC(C)C)CC1` is 855 s; for `CC(C)n1c(SCC(=O)N2CCCCC2)nnc1-c1ccc2c(c1)OCCCO2` it is 761 s.
Compound `Cc1ccc(CN2CCC3(CC2)CC(CC(=O)N2CCOCC2)CCO3)s1` (stereo not given) gave an RP-LC retention time of 595 s.
For `c1ccc(N2CCN(Cc3cccn3-c3nnc(N4CCOCC4)s3)CC2)nc1`, the RP-LC retention time was 756 s.
The figure for `COc1ccc(/C=C2\CCCc3ccccc3C2=O)cc1` is 1140 s; for `O=C(O)c1cnc(N2CCSCC2)nc1-c1ccccc1` it is 866 s.
The figure for `CCOc1cc(-c2ccc(F)cc2)nc2ccc(NS(=O)(=O)c3cccc(C#N)c3)cc12` is 816 s.
The figure for `O=C(Nc1ccc(-c2nnc3n2CCCC3)cc1)C1CCCC1` is 648 s; for `O=C(Nc1nc2c(s1)COc1ccccc1-2)C1COc2ccccc2O1` (stereo not given) it is 980 s; for `CSc1cccc(NC(=O)Cn2ccn3nc(-c4ccccc4)c(CO)c3c2=O)c1` it is 852 s.
Compound `O=C(NCc1ccc(F)cc1F)c1ccc(OCC(=O)C2CC2)cc1` came in with an RP-LC retention time of 784 s.
The figure for `CCCOc1ccc(-c2noc(Cc3nc(-c4ccccc4)cs3)n2)cc1` is 1340 s.
For the compound `O=S(=O)(Nc1ccc(F)cc1)c1cccnc1Nc1cccc(F)c1`, the RP-LC retention time worked out at 1060 s.
For `Cc1ccc(C)c(NC(=O)Cn2c(C)cc(-c3nnc(C4CC4)o3)c2C)c1`, the RP-LC retention time came out at 851 s.
Compound `CC(C)NC(=O)c1ccc(OCC2CCCN2C(=O)c2ccoc2)cc1` (stereo not given) came in with an RP-LC retention time of 747 s.
In turn, `O=C(Nc1ccc(F)cc1)C1CCN(C(=O)c2ncn3c2COC(c2ccccc2)C3)CC1` (stereo not given) showed an RP-LC retention time of 791 s.
The figure for `Cc1ccc(S(=O)(=O)c2ccccc2[N+](=O)[O-])cc1` is 874 s.
Regarding `CCOC(=O)CCC(=O)NCC1CN(c2ccc(Cl)c(Cl)c2)C(=O)O1` (stereo not given), the RP-LC retention time came out at 774 s.
As for `CCOc1ccc(-c2noc(N3CCC(C(=O)N4CCN(C)CC4)CC3)n2)cc1OC`, the RP-LC retention time was 626 s.
`COc1ccc(NC(=O)Cn2cnc3c(sc4nc(-c5ccccc5)ccc43)c2=O)cc1` gave an RP-LC retention time of 967 s.
The figure for `Cc1cc(N2CCCC2)n2nc(CN3CCN(c4ccccc4Cl)CC3)nc2n1` is 662 s; for `COCCNC(=O)N1CCCN(C2=NS(=O)(=O)C(c3ccc(C)cc3)=C2C)CC1` it is 688 s.
The figure for `Cc1cccc(CNC(=O)C2CCN(S(=O)(=O)c3ccc(-c4cc(C)[nH]n4)o3)CC2)c1` is 816 s; for `CCOc1cc(C(=O)N2CCCC2c2nc(-c3ccc(C)cc3)no2)cc(OCC)c1OCC` (stereo not given) it is 1200 s; for `COc1ccc(-c2csc(Cc3nc(-c4cccc(Cl)c4)no3)n2)cc1OC` it is 1160 s.
In turn, `COc1cccc(C(=O)Nc2cccc(-c3nc4ncccc4o3)c2)c1` came in with an RP-LC retention time of 781 s.
With `O=C(Nc1nnc(-c2ccno2)o1)C1CCCN(S(=O)(=O)c2ccc(Cl)s2)C1` (stereo not given), the RP-LC retention time amounted to 757 s.
Compound `COc1cccc(-n2cc(C(=O)OCc3cccnc3)c3ccccc3c2=O)c1` had an RP-LC retention time of 754 s.
The figure for `O=C(NC1CCN(c2cc(-c3ccccc3)[nH]n2)C1)c1ccc2c(c1)OCO2` (stereo not given) is 648 s; for `NC(=O)CCC(NC(=O)Cc1ccccc1)C(=O)O` (stereo not given) it is 594 s.
The figure for `COC(=O)c1cc(Cl)c(NC(=O)C(C)C)cc1OC` is 767 s.
In turn, `O=C(NC1CCCC1)N1CCN(Cc2nc3cc(-c4ccccc4)ccc3o2)CC1` registered an RP-LC retention time of 787 s.
The figure for `COc1ccc(N2CC(c3noc(-c4ccc(C(C)(C)C)cc4)n3)CC2=O)cc1` (stereo not given) is 1200 s; for `Cn1c(=O)n([C@H]2CCN(C(=O)c3ccc(Cn4ccnc4)o3)C2)c2ncccc21` it is 573 s; for `CCN1CCN(c2nc(F)c3c(c2F)S(=O)(=O)CCN3C2CCCCC2)CC1` it is 700 s.
As to `CCc1cc(C(=O)Nc2cccc(C)c2C)nc2ccnn12`, the RP-LC retention time was found to be 1150 s.
The figure for `Cc1sc(-c2nnc(C3CC3)o2)cc1NC(=O)C1CC1` is 819 s; for `Cc1nn(CC(=O)NCCC2=CCCCC2)c(=O)c2c(C)n(-c3ccccc3)nc12` it is 870 s.
The figure for `Cc1ccc(C)c(NC(=O)c2c(C)oc3nc(C)nc(N4CCOCC4)c23)c1` is 803 s.
The figure for `CCN(CC)S(=O)(=O)c1ccc2c(c1)N(CC(=O)NC1CC1)C(=O)C1CCCCN21` (stereo not given) is 681 s.
As for `Cc1ccc2nc(N3CCN(c4ccccc4F)CC3)c(-c3noc(C)n3)cc2c1`, the RP-LC retention time came out at 730 s.
The figure for `CCCn1c(CCNC(=O)c2cc(F)ccc2F)nc2cccnc21` is 673 s.
As for `COc1ccc(C2=NC3(CCN(C(=O)Nc4ccc(Cl)cc4)CC3)NC2=O)cc1`, the RP-LC retention time came to 835 s.
The figure for `CC(C)Oc1ccc(CNC(=O)c2ccc3c(c2)N(C)C(=O)c2ccccc2O3)cc1` is 958 s.
As to `Cc1ccc(-c2nc3n(CC(=O)NCC4CCCO4)c4c(c(=O)n3n2)CCC4)cc1` (stereo not given), the RP-LC retention time was found to be 720 s.
Take `O=c1n(Cc2cc(F)cc(F)c2)nc2c(S(=O)(=O)N3CCCCCC3)cccn12`: the RP-LC retention time worked out at 973 s.
The figure for `Cc1cc(N2CCCC2)n2nc(CN3CCN(c4ccccn4)CC3)nc2n1` is 553 s.
The figure for `O=C(Nc1cc(-c2ccccn2)no1)c1ccccc1Br` is 789 s.
The figure for `Cc1cccc(NC(=O)c2cnn3c2CCCC3)c1` is 776 s; for `CN1C(=O)C2CCCCN2c2ccc(C(=O)NCCCN(C)C3CCCCC3)cc21` (stereo not given) it is 655 s.
Compound `Cc1c(C(=O)N2CCOc3ccc(-c4ccc(N)nc4)cc3C2)ccc(S(C)(=O)=O)c1F` yielded an RP-LC retention time of 643 s.
The figure for `N#CCCN(C(=O)c1noc2c1CCCC2)c1ccccc1` is 827 s; for `Cc1nc(NC2=NCN(Cc3ccc4c(c3)OCO4)CN2)nc2ccccc12` it is 707 s.
In the case of `Cc1cc2n(n1)CCC(=O)N2CCCC(=O)NC1CCCCC1`, the RP-LC retention time came to 661 s.
In turn, `CS(=O)(=O)Nc1ccc(CC(=O)NC2CC2)cc1` returned an RP-LC retention time of 585 s.
The figure for `O=[N+]([O-])c1cccc2cn[nH]c12` is 767 s; for `CC(C)Cn1c(=O)c2cc(C(=O)N3CCSCC3)nn2c2ccccc21` it is 955 s.
Consider `CCN1CCN(c2cc(C)c3cc(NC(=S)N4CCN(c5ccccc5F)CC4)ccc3n2)CC1`, for which the RP-LC retention time worked out at 620 s.
The figure for `CC(C)n1cnc2cc(CNC(=O)c3ccoc3)ccc21` is 574 s.
The figure for `CCCN1CCN(Cc2nc(-c3ccc(N4CCSCC4)nc3)no2)CC1` is 615 s; for `O=C(CCc1nnn2c1CN(C(=O)COc1ccc(F)cc1)CC2)N1CCCC1` it is 665 s.
The figure for `COCCc1noc(C2Cc3ccccc3N2C(=O)Nc2ccc(OC)c(OC)c2)n1` (stereo not given) is 851 s; for `CCN(CC)S(=O)(=O)c1ccc2c(c1)c(=O)c(C(=O)N1CCN(c3ccccn3)CC1)cn2C` it is 588 s; for `CCCNC(=O)C1CCCN(c2ncnc3c2nc2n3CCCCC2)C1` (stereo not given) it is 650 s.
For the compound `CCOC(=O)c1nc(NCCCN2CCN(c3cc(Cl)ccc3C)CC2)c2ccccc2n1`, the RP-LC retention time turned out to be 731 s.
The figure for `Cc1ccsc1C(=O)N1CCC2(CC1)CC(N(C(=O)NC(C)C)C1CC1)CCO2` (stereo not given) is 798 s.
Compound `COc1ccc(OC)c(NC(=O)Cn2c(=O)nc(NC3CCCC3)c3ccccc32)c1` came in with an RP-LC retention time of 740 s.
The figure for `COC(=O)c1cccc(Nc2c(-c3cccc(Cl)c3)nc3cnccn23)c1` is 905 s; for `CCOc1ccc(/C=C/C(=O)Nc2nc(-c3ccc(C)cc3)c(C)s2)cc1` it is 726 s; for `COc1ccc2c(C)c(C(=O)NCCn3ncccc3=O)oc2c1` it is 669 s.
The figure for `CCCN1CCN(c2ncc3c(n2)CCN(Cc2cc(F)cc(F)c2)C3)CC1` is 549 s.
Take `CCN1C(=O)c2cccnc2Sc2cc(CNC(=O)c3ccc(OC)c(F)c3)ccc21`: the RP-LC retention time amounted to 763 s.
Turning to `COc1ccc(S(=O)(=O)N(C)CC2(C)CCOCC2)cc1Cl`, the RP-LC retention time turned out to be 925 s.
The figure for `CCOc1ccc(-c2cc3c(=O)n(Cc4nc(-c5cccc(C)c5)no4)ncn3n2)cc1` is 1210 s.
The figure for `O=C(N[C@H]1C[C@@H]2C[C@H]1N(C(=O)Cc1c(F)cccc1Cl)C2)c1cccnc1` is 695 s; for `Cc1ccc(S(=O)(=O)NCCn2c(C)cnc2C2CCC2)cc1F` it is 637 s; for `Cc1cc(=O)n(CC(=O)Nc2ccccc2F)c(N2CCc3ccccc3C2)n1` it is 802 s.
With `O=C(Cc1ccccc1)N1CCCC1c1nc(-c2ccccc2Cl)no1` (stereo not given), the RP-LC retention time was found to be 994 s.
`CCSc1nnc(-c2nn(C)c3c2CN(S(=O)(=O)Cc2ccccc2F)CC3)n1CC` had an RP-LC retention time of 905 s.
